Source: ChEMBL document CHEMBL4483862, “Open-source discovery of chemical leads for next-generation chemoprotective antimalarials” (2018)

Test system: Plasmodium berghei
Test: Luciferase/luciferin-expressing antifolate-resistant parasites were used to infect a culture of HepG2 cells that were pre-incubated with compounds. Infected hepatocytes emit light due to the luciferase reaction. Assay results are presented as the percent inhibition of light emission compared to control. […]
Format: functional
Conditions: sporozoite; for IC90: read-out: LUCIFERASE INFECTION ASSAY - IC90

## CN(C)CCNc1nc2sc3c(c2c(=O)n1-c1ccccc1)CCCCC3
PBLUC_HILL_SLOPE 1.45, PBLUC_R_SQUARED 0.611, read-out: LUCIFERASE INFECTION ASSAY - IC50
  IC50: 8.23 µM
  IC90: > 8.63 µM

## Fc1ccc(C(CCNCc2ccccn2)c2ccc(Cl)cc2)cc1 (stereo not drawn)
PBLUC_HILL_SLOPE 1.42, PBLUC_R_SQUARED 0.0971, read-out: LUCIFERASE INFECTION ASSAY - IC50
  IC50: 5.49 µM
  IC90: > 9.3 µM

## CC(C)(C)c1ccc(Oc2ccc(N)cc2)cc1
PBLUC_HILL_SLOPE 1.38, PBLUC_R_SQUARED 0.811, read-out: LUCIFERASE INFECTION ASSAY - IC50
  IC50: 0.942 µM
  IC90: 4.63 µM

## CCOCCCNC(=O)/C(C#N)=C/c1ccc([N+](=O)[O-])o1
PBLUC_HILL_SLOPE 1.42, PBLUC_R_SQUARED 0.135, read-out: LUCIFERASE INFECTION ASSAY - IC50
  IC50: > 10 µM
  IC90: > 10 µM

## CN1N=C2c3ccccc3CCC2C1c1ccc(F)cc1 (stereo not drawn)
PBLUC_HILL_SLOPE 1.42, PBLUC_R_SQUARED 0.884, read-out: LUCIFERASE INFECTION ASSAY - IC50
  IC50: 1.2 µM
  IC90: 5.64 µM

## CC(=O)Nc1ccc(Oc2ccnc3cc(Cl)ccc23)cc1
PBLUC_HILL_SLOPE 1.43, PBLUC_R_SQUARED 0.691, read-out: LUCIFERASE INFECTION ASSAY - IC50
  IC50: 3.48 µM
  IC90: > 10 µM

## CCCN1CCc2nc(NCc3cccc(Oc4ccccc4)c3)ncc2C1
PBLUC_HILL_SLOPE 1.46, PBLUC_R_SQUARED 0.3, read-out: LUCIFERASE INFECTION ASSAY - IC50
  IC50: 3.92 µM
  IC90: > 8.81 µM

## Cc1cc(/C=C/C(=O)Nc2nccs2)c(C)n1-c1ccccc1
PBLUC_HILL_SLOPE 1.4, PBLUC_R_SQUARED 0.69, read-out: LUCIFERASE INFECTION ASSAY - IC50
  IC50: 0.681 µM
  IC90: 3.27 µM

## COc1ccc(S(=O)(=O)N(Cc2ccc(C(=O)NC3CC3)cc2)C2CC2)cc1OC
PBLUC_HILL_SLOPE 1.44, PBLUC_R_SQUARED 0.778, read-out: LUCIFERASE INFECTION ASSAY - IC50
  IC50: 1.68 µM
  IC90: 7.7 µM

## COc1ccc(C2c3ccsc3CCN2S(=O)(=O)c2ccc(F)c(Cl)c2)cc1 (stereo not drawn)
PBLUC_HILL_SLOPE 1.37, PBLUC_R_SQUARED 0.631, read-out: LUCIFERASE INFECTION ASSAY - IC50
  IC50: 3.09 µM
  IC90: > 7.54 µM

## Cc1cc(C(=O)N(C)Cc2nc(=O)c3ccccc3[nH]2)c(C)n1-c1ccccc1F
PBLUC_HILL_SLOPE 1.44, PBLUC_R_SQUARED 0.478, read-out: LUCIFERASE INFECTION ASSAY - IC50
  IC50: 6.97 µM
  IC90: > 10 µM

## C=CCN(C(=O)c1sc2nc3n(c(=O)c2c1C)CCCCC3)c1nc2c(s1)CCCC2
PBLUC_HILL_SLOPE 1.42, PBLUC_R_SQUARED 0.275, read-out: LUCIFERASE INFECTION ASSAY - IC50
  IC50: > 10 µM
  IC90: > 10 µM

## Cc1cc(Cl)ccc1S(=O)(=O)N(Cc1ccncc1)C1CC1
PBLUC_HILL_SLOPE 1.42, PBLUC_R_SQUARED 0.462, read-out: LUCIFERASE INFECTION ASSAY - IC50
  IC50: 1.69 µM
  IC90: 7.99 µM

## COc1cc(/C=C/C(=O)c2ccc3[nH]c(=O)[nH]c3c2)cc(Cl)c1OC(F)F
PBLUC_HILL_SLOPE 1.43, PBLUC_R_SQUARED 0.612, read-out: LUCIFERASE INFECTION ASSAY - IC50
  IC50: 6.07 µM
  IC90: > 10 µM

## COc1ccc(NC(=O)c2cccc3c[nH]nc23)cc1Cc1ccccc1
PBLUC_HILL_SLOPE 1.42, PBLUC_R_SQUARED 0.679, read-out: LUCIFERASE INFECTION ASSAY - IC50
  IC50: 2.02 µM
  IC90: 9.56 µM

## NC(=O)c1cc(-c2cs/c(=N\c3ccccc3F)n2C2CCCC2)ccc1O
PBLUC_HILL_SLOPE 1.38, PBLUC_R_SQUARED 0.237, read-out: LUCIFERASE INFECTION ASSAY - IC50
  IC50: 4.32 µM
  IC90: > 10 µM

## O=C(Nc1ccc(OC(F)(F)F)cc1)c1ccc(=O)n(Cc2ccc(Cl)cc2)c1
PBLUC_HILL_SLOPE 1.46, PBLUC_R_SQUARED 0.0131, read-out: LUCIFERASE INFECTION ASSAY - IC50
  IC50: 7.46 µM
  IC90: > 7.81 µM

## CNc1nc(SCCS(=O)(=O)c2ccccc2)nc2ccccc12
PBLUC_HILL_SLOPE 1.42, PBLUC_R_SQUARED 0.718, read-out: LUCIFERASE INFECTION ASSAY - IC50
  IC50: 1.45 µM
  IC90: 6.83 µM

## O=c1[nH]nc(CSc2ccccn2)c2ccccc12
PBLUC_HILL_SLOPE 1.43, PBLUC_R_SQUARED 0.267, read-out: LUCIFERASE INFECTION ASSAY - IC50
  IC50: 10 µM
  IC90: > 12.3 µM

## CNC(=O)c1ccc(CN(C2CC2)S(=O)(=O)c2ccc(C(F)(F)F)cc2)cc1
PBLUC_HILL_SLOPE 1.42, PBLUC_R_SQUARED 0.391, read-out: LUCIFERASE INFECTION ASSAY - IC50
  IC50: 3.3 µM
  IC90: > 10 µM

## FC(F)(F)c1c(-c2nc(-c3ccc(Cl)cc3)no2)cnn1-c1ccccc1
PBLUC_HILL_SLOPE 1.45, PBLUC_R_SQUARED 0.734, read-out: LUCIFERASE INFECTION ASSAY - IC50
  IC50: 0.262 µM
  IC90: 1.19 µM

## Cc1cccc(C)c1Nc1nnc(C(O)c2ccc(F)c(Cl)c2)s1 (stereo not drawn)
PBLUC_HILL_SLOPE 1.46, PBLUC_R_SQUARED 0.342, read-out: LUCIFERASE INFECTION ASSAY - IC50
  IC50: 2.96 µM
  IC90: > 10 µM

## Cc1cccc(C)c1N1C(=O)CC(N2CCCC(c3nc4ccccc4s3)C2)C1=O (stereo not drawn)
PBLUC_HILL_SLOPE 1.45, PBLUC_R_SQUARED 0.739, read-out: LUCIFERASE INFECTION ASSAY - IC50
  IC50: 1.99 µM
  IC90: 9.05 µM

## N#CCCN(C(=O)CSc1nc2cc(S(=O)(=O)Nc3ccc(Cl)cc3)ccc2o1)c1ccccc1
PBLUC_HILL_SLOPE 1.44, PBLUC_R_SQUARED 0.751, read-out: LUCIFERASE INFECTION ASSAY - IC50
  IC50: 1.72 µM
  IC90: 7.89 µM

## Cc1ccc(OCc2n[nH]c(=S)n2C2CCCCC2)c2c1CCC2
PBLUC_HILL_SLOPE 1.42, PBLUC_R_SQUARED 0.362, read-out: LUCIFERASE INFECTION ASSAY - IC50
  IC50: > 9.61 µM
  IC90: > 9.61 µM

## CCC(C)(C)NS(=O)(=O)c1ccc(C(C)(C)C)cc1
PBLUC_HILL_SLOPE 1.46, PBLUC_R_SQUARED 0.189, read-out: LUCIFERASE INFECTION ASSAY - IC50
  IC50: > 10 µM
  IC90: > 10 µM

## O=C(Nc1nccs1)c1ccc(N2CCCCCC2)nc1
PBLUC_HILL_SLOPE 1.4, PBLUC_R_SQUARED 0.612, read-out: LUCIFERASE INFECTION ASSAY - IC50
  IC50: 2.36 µM
  IC90: > 10 µM

## OC(c1cn2cc(-c3ccccc3)nc2s1)(C(F)(F)F)C(F)(F)F
PBLUC_HILL_SLOPE 1.37, PBLUC_R_SQUARED 0.781, read-out: LUCIFERASE INFECTION ASSAY - IC50
  IC50: 0.348 µM
  IC90: 1.73 µM

## Fc1cccc(-c2nccc3n[nH]c(-c4cccc(OC(F)(F)F)c4)c23)c1
PBLUC_HILL_SLOPE 1.45, PBLUC_R_SQUARED 0.246, read-out: LUCIFERASE INFECTION ASSAY - IC50
  IC50: 5.34 µM
  IC90: > 10 µM

## COc1cccc(N2CCN(CC(=O)c3c[nH]c4ccccc34)CC2C)c1 (stereo not drawn)
PBLUC_HILL_SLOPE 1.43, PBLUC_R_SQUARED 0.653, read-out: LUCIFERASE INFECTION ASSAY - IC50
  IC50: 4.63 µM
  IC90: > 9.08 µM

## COc1ccc(-c2[nH]c3ccc(F)cc3c2CCC(=O)NCc2nnc3ccccn23)cc1
PBLUC_HILL_SLOPE 1.44, 1.44, PBLUC_R_SQUARED 0.412, 0.538, read-out: LUCIFERASE INFECTION ASSAY - IC50
  IC50: 5.36 µM
  IC90: > 10 µM

## Cc1cc(C)c(S(=O)(=O)N2CCC(C(=O)N3CCn4c3nc3ccccc34)CC2)c(C)c1
PBLUC_HILL_SLOPE 1.44, PBLUC_R_SQUARED 0.637, read-out: LUCIFERASE INFECTION ASSAY - IC50
  IC50: 3.45 µM
  IC90: > 10 µM

## O=C(Nc1nnc(-c2ccco2)s1)c1csc(COc2ccc(Cl)cc2)n1
PBLUC_HILL_SLOPE 1.45, PBLUC_R_SQUARED 0.301, read-out: LUCIFERASE INFECTION ASSAY - IC50
  IC50: 4.28 µM
  IC90: > 10 µM

## c1ccc(Nc2nc(-c3ccc4c(c3)CCC4)cs2)nc1
PBLUC_HILL_SLOPE 1.40, 0.464, PBLUC_R_SQUARED 0.303, 0.681, read-out: LUCIFERASE INFECTION ASSAY - IC50
  IC50: 4.84 µM
  IC90: > 10 µM
